Test results: paper PMC10999112 (Angewandte Chemie (International ed. in English), 2023)

Target: recombinant WT-NSUN2 (Homo sapiens, UniProt Q08J23)
Assay: Gel-ABPP in lysate of WT-NSUN2-expressing HEK293T cells
Format: binding
Conditions: recombinant WT-NSUN2 in HEK293T cell lysates

recombinant WT-NSUN2, sequence (Q08J23 whole entry): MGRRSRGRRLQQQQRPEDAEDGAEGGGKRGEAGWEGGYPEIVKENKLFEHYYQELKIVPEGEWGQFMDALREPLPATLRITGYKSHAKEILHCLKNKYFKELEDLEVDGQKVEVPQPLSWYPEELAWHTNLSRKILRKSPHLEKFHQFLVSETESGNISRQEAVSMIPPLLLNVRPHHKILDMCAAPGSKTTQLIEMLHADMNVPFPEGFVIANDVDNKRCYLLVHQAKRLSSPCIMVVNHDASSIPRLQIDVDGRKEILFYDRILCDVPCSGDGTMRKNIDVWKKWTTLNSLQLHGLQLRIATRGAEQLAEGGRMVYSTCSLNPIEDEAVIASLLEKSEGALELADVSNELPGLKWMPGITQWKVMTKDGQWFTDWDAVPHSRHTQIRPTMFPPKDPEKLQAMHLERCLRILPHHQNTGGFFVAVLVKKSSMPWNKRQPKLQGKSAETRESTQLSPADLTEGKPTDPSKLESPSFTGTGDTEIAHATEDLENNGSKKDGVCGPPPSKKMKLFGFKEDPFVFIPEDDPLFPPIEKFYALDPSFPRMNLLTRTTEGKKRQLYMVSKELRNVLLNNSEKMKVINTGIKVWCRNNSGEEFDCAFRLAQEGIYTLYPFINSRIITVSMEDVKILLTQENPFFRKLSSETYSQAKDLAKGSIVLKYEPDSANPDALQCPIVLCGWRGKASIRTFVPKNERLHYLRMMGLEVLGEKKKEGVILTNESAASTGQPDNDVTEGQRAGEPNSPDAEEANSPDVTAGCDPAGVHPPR

## Nc1ncnc2c1ncn2[C@@H]1O[C@H](CSCC[C@H](N)C(=O)O)[C@@H](O)[C@H]1O [SAH, S-adenosylhomocysteine]
  blockade of MY-11B reactivity with NSUN2: blocked in a concentration-dependent manner
